Measured values published in BigSolDB 2.1.

CC(C(=O)O)c1ccc2c(c1)CC(=O)c1ccccc1S2 (stereo not drawn)
solubility (mole fraction)
Details	278.15 K	283.15 K	288.15 K	293.15 K	298.15 K	303.15 K	308.15 K	313.15 K	318.15 K	323.15 K
in 1,4-dioxane	–	–	0.0923	0.103	0.114	0.127	0.142	0.157	0.173	0.19
in 2-ethoxyethanol	0.0373	0.0458	0.0518	0.0596	0.0677	0.0779	0.0911	0.106	0.12	0.136
in 2-methoxyethanol	0.0278	0.036	0.0437	0.0516	0.0619	0.074	0.0878	0.102	0.119	0.138
in ethanol	0.00265	0.00396	0.00522	0.0071	0.00956	0.012	0.0166	0.0222	0.03	0.0418
in ethyl acetate	0.00812	0.00951	0.0112	0.0131	0.0154	0.0176	0.0216	0.0256	0.0304	0.0362
